{"source": "patent US5134142A", "about": "“Pyrazole derivatives, and pharmaceutical composition comprising the same” (Fujisawa Pharmaceutical Co., Ltd., priority 1989, dated 1992)", "key": {"[1]": {"tested_on": "adjuvant arthritis in rats", "assay": "Effect on adjuvant arthritis in rats (antiinflammatory activity)", "type": "in vivo, female Sprague-Dawley rats", "conditions": "Rattus norvegicus, po, 552 h, orally once a day for 23 days, read-out: Inhibition of secondary lesion (uninjected paw)"}, "[2]": {"tested_on": "collagen induced arthritis in mice", "assay": "Effect on collagen induced arthritis in mice (anti-rheumatic activity)", "type": "in vivo, male DBA/1 mice", "conditions": "10 mg/kg, orally once a day for 3 weeks from 10 day after challenge", "experimental": "Effect on collagen induced arthritis in mice : (i) Test Method : Eight male DBA/1 mice were used per group. Type II bovine collagen was solublized in 0.1M acetic acid and emulsified in complete Freund's adjuvant (CFA . Mice were primed with 0.2 mg of Type II collagen in CFA intradermally at the base of the tail. Mice were challenged after 21 day with the same procedure. From 10 day after challenge, drug was administered orally once a day for 3 weeks and mice were inspected weekly for visual signs of arthritis. An arthritis index was used to grade limb 0-3, representing joint swelling and erythema (Grade 1), visible joint disorder (Grade 2 and detectable joint ankylosis (Grade 3)."}, "[3]": {"tested_on": "platelet aggregation induced by collagen", "assay": "Effect on platelet aggregation induced by collagen (antithrombotic activity)", "type": "cell-based", "conditions": "human platelet rich plasma, collagen 0.5 μg/ml, 37° C", "experimental": "Effect on platelet aggregation induced by collagen :\nPlatelet rich plasma (PRP) which contains 3×10^8 platelets/ml was prepared from human blood. To the 245 μl of PRP, 5 μl of drug solution* was added, and then stirred for 2 min at 37° C. To the solution 5 μl of collagen (0.5 μg/ml) was added as an aggregation inducer. Aggregation was measured by using an aggregometer (NKK HEMA-TRACER 1). Activities of inhibitors (test compounds) were expressed as IC50 values i.e. doses required to inhibit the platelet aggregation responses by 50%.\nDrug solution* - - - Test compounds were dissolved in dimethylsulfoxide."}, "[4]": {"tested_on": "inflammatory hyperalgesia induced by brewer's yeast in rats", "assay": "Inflammatory hyperalgesia induced by brewer's yeast in rats (analgesic activity)", "type": "in vivo, male Sprague Dawley rats", "conditions": "oral, pain threshold 3 hours after yeast injection", "experimental": "Inflammatory hyperalgesia induced by brewer's yeast in rats : (i) Test Method : Ten male Sprague Dawley rats were used per group. 0.1 ml of 5% brewer's yeast suspended in 0.5% methylcellulose was injected into the right hind paw. The pain threshold was determined 3 hours after yeast injection, by applying pressure to the foot and reading the pressure at which the rat withdrew the foot. The drugs were given orally 2 hours after yeast injection. The pain threshold in the treated animals was compared with that in the control animals."}, "[5]": {"tested_on": "Delayed Type Hypersensitivity (DTH) response to bovine type II collagen", "assay": "Effect on Delayed Type Hypersensitivity (DTH) response to bovine type II collagen", "type": "in vivo, male DBA/1 mice", "conditions": "oral, 24 hours after challenge, mice"}}}
{"compound": "CS(=O)(=O)c1ccc(-c2cc(C#N)nn2-c2ccc(F)cc2F)cc1", "note": "[15-6), 1-(2,4-Difluorophenyl)-5-[4-(methylsulfonyl)phenyl]pyrazole-3-carbonitrile]", "values": [{"measurement": "inhibition in vivo at 3.2 mg/kg", "setting": "[1]", "result": 94.3, "unit": "%"}, {"measurement": "Inhibition of arthritis index", "setting": "[2]", "result": 98.9, "unit": "%"}]}
{"compound": "CS(=O)(=O)c1ccc(-c2ccnn2-c2ccc(F)cc2)cc1", "note": "[17-1), 1-(4-Fluorophenyl)-5-[4-(methylsulfonyl)phenyl]pyrazole]", "values": [{"measurement": "inhibition in vivo at 3.2 mg/kg", "setting": "[1]", "result": 80.6, "unit": "%"}]}
{"compound": "CS(=O)(=O)c1ccc(-c2cc(C#N)nn2-c2ccc(F)cc2)cc1", "note": "[Example 6, 1-(4-fluorophenyl)-5-[4-(methylsulfonyl)phenyl]pyrazole-3-carbonitrile]", "values": [{"measurement": "inhibition in vivo at 10 mg/kg", "setting": "[1]", "result": 95.6, "unit": "%"}, {"measurement": "IC50", "setting": "[3]", "result": 5.3, "unit": "µM"}, {"measurement": "Inhibition of arthritis index", "setting": "[2]", "result": 78.6, "unit": "%"}, {"measurement": "Relative potency (Control = 1.0)", "setting": "[4]; 32 mg/kg", "result": 1.34}, {"measurement": "per cent inhibition of DTH response compared with vehicle control", "setting": "[5]; 0.32 mg/kg", "result": 53.4, "unit": "%"}, {"measurement": "per cent inhibition of DTH response compared with vehicle control", "setting": "[5]; 1.0 mg/kg", "result": 61.5, "unit": "%"}, {"measurement": "per cent inhibition of DTH response compared with vehicle control", "setting": "[5]; 3.2 mg/kg", "result": 74.3, "unit": "%"}]}
{"compound": "CSc1ccc(-c2cc(C#N)nn2-c2ccc(F)cc2)cc1", "note": "[15-2), 1-(4-Fluorophenyl)-5-[4-(methylthio)phenyl]pyrazole-3-carbonitrile]", "values": [{"measurement": "per cent inhibition of DTH response compared with vehicle control", "setting": "[5]; 0.32 mg/kg", "result": 55.4, "unit": "%"}, {"measurement": "per cent inhibition of DTH response compared with vehicle control", "setting": "[5]; 1.0 mg/kg", "result": 70.9, "unit": "%"}, {"measurement": "per cent inhibition of DTH response compared with vehicle control", "setting": "[5]; 3.2 mg/kg", "result": 69.6, "unit": "%"}]}
{"compound": "CC(C)Cc1ccc(C(C)C(=O)O)cc1", "note": "(centres unmarked) [Ibuprofen, reference compound]", "values": [{"measurement": "inhibition in vivo at 10 mg/kg", "setting": "[1]", "result": 24.7, "unit": "%"}]}
{"compound": "CNc1ccc(-n2nc(C(F)(F)F)cc2-c2ccc(S(C)(=O)=O)cc2)cc1.Cl", "note": "[45-8), 1-[4-(Methylamino)phenyl]-5-[4-(methylsulfonyl)-phenyl]-3-(trifluoromethyl)pyrazole hydrochloride]", "values": [{"measurement": "inhibition in vivo at 3.2 mg/kg", "setting": "[1]", "result": 80.8, "unit": "%"}, {"measurement": "Inhibition of arthritis index", "setting": "[2]", "result": 83.5, "unit": "%"}]}
{"compound": "CS(=O)(=O)c1ccc(-c2cc(C(F)(F)F)nn2-c2ccc(F)cc2)cc1", "note": "[11-3), 1-(4-Fluorophenyl)-5-[4-(methylsulfonyl)phenyl]-3-(trifluoromethyl)pyrazole]", "values": [{"measurement": "inhibition in vivo at 10 mg/kg", "setting": "[1]", "result": 100, "unit": "%"}, {"measurement": "Inhibition of arthritis index", "setting": "[2]", "result": 91.7, "unit": "%"}, {"measurement": "Relative potency (Control = 1.0)", "setting": "[4]; 32 mg/kg", "result": 1.35}]}
{"compound": "CCNc1ccc(-n2nc(C#N)cc2-c2ccc(S(C)(=O)=O)cc2)cc1", "note": "[37-2), 1-[4-(Ethylamino)phenyl]-5-[4-(methylsulfonyl)phenyl]pyrazole-3-carbonitrile]", "values": [{"measurement": "inhibition in vivo at 3.2 mg/kg", "setting": "[1]", "result": 81.7, "unit": "%"}]}
{"compound": "C[S+]([O-])c1ccc(-c2cc(C#N)nn2-c2ccc(F)cc2)cc1", "note": "(centres unmarked) [Example 24, 1-(4-fluorophenyl)-5-[4-(methylsulfinyl)phenyl]pyrazole-3-carbonitrile]", "values": [{"measurement": "inhibition in vivo at 3.2 mg/kg", "setting": "[1]", "result": 80.6, "unit": "%"}, {"measurement": "Inhibition of arthritis index", "setting": "[2]", "result": 90.5, "unit": "%"}, {"measurement": "Relative potency (Control = 1.0)", "setting": "[4]; 10 mg/kg", "result": 1.44}, {"measurement": "per cent inhibition of DTH response compared with vehicle control", "setting": "[5]; 0.32 mg/kg", "result": 45.9, "unit": "%"}, {"measurement": "per cent inhibition of DTH response compared with vehicle control", "setting": "[5]; 1.0 mg/kg", "result": 66.9, "unit": "%"}, {"measurement": "per cent inhibition of DTH response compared with vehicle control", "setting": "[5]; 3.2 mg/kg", "result": 75.7, "unit": "%"}]}
{"compound": "CS(=O)(=O)Nc1ccc(-n2nc(C#N)cc2-c2ccc(S(C)(=O)=O)cc2)cc1", "note": "[Example 36]", "values": [{"measurement": "inhibition in vivo at 3.2 mg/kg", "setting": "[1]", "result": 84.2, "unit": "%"}]}
{"compound": "C[S+]([O-])c1ccc(-c2cc(C#N)nn2-c2ccc(F)cc2F)cc1", "note": "(centres unmarked) [33-2), 1-(2,4-Difluorophenyl)-5-[4-(methylsulfinyl)phenyl]pyrazole-3-carbonitrile]", "values": [{"measurement": "inhibition in vivo at 3.2 mg/kg", "setting": "[1]", "result": 87.1, "unit": "%"}, {"measurement": "Inhibition of arthritis index", "setting": "[2]", "result": 92.4, "unit": "%"}]}
